Measured values as given in article PMC12957839, “Antiviral activity and mechanism of purine morpholine nucleoside analogues incorporating a sulfonamide fragment” (Journal of Advanced Research, 2025).
≈ marks a conversion by molar mass, not a printed value. Read-outs that look alike come from different tables or passages of the source.

Key:
PMMoV [1] = experiment: Antiviral activity assay against PMMoV, curative activity; type: in vivo, Pepper mild mottle virus (PMMoV); design: Curative activity: concentration or dose not given beside the values; conditions: for EC50: Pepper mild mottle virus, read-out: EC50 of curative activity
Procedure: (§1) Virions were isolated and extracted from leaves of N. benthamiana infected with PMMoV referring to the method recorded in the literature. And the inhibiting activities of C1–C38 against PMMoV were assessed with reference to the literature as well [26, 34].

PMMoV [2] = experiment: Antiviral activity assay against PMMoV, protective activity; type: in vivo, Pepper mild mottle virus (PMMoV); design: Protective activity: concentration or dose not given beside the values; conditions: for EC50: Pepper mild mottle virus, read-out: EC50 of protective activity
Procedure: as §1

PMMoV [3] = experiment: Antiviral activity assay against PMMoV, inactivating activity; type: in vivo, Pepper mild mottle virus (PMMoV); conditions: for pest or weed control at 500 µg/mL / EC50: Pepper mild mottle virus; for pest or weed control at 500 µg/mL: read-out: Inactivating activity; for EC50: read-out: EC50 of inactivating activity
Procedure: as §1

PMMoV CP [4] = target: T1, PMMoV CP (Pepper mild mottle virus, UniProt P69509); experiment: Microscale thermophoresis (MST) binding affinity with PMMoV CP
Procedure: The binding affinities of compounds with PMMoV CP were analyzed by MST based on the procedures delineated in the literature.

PMMoV CP [5] = target: T1, PMMoV CP; experiment: ABPP probe capture of PMMoV CP (Western blot), concentration dependence and competitive inhibition; type: binding; conditions: for capture of the 17 kDa protein from PMMoV: Western blot, identical concentration, Fig. S132; for capture of PMMoV CP: same concentration of 100 µM; for capture of PMMoV CP / labeling of PMMoV CP by probe: Fig. 1B
Text: ABPP technology utilized its unique chemical probe strategy to selectively capture target proteins and was regarded as a well-established approach for discovering target proteins.

PMMoV CP and I3QHX5 = experiment: BiFC interaction of PMMoV CP and PMMoV CP^Y13A with I3QHX5 before and after application of C1; type: cell-based, N. benthamiana; conditions: addition of C1, 30, 36 and 42 hpi, Fig. 6A
Procedure: Designed primers to construct vectors of LCA and BiFC via homologous recombination. Extracted plasmids and waited for sequencing confirmation before transforming them into GV3101 (pU19). A. tumefaciens transient transformation solution (200 μM acetosyringone, 10 mM MgCl2, and 10 mM MES, pH = 5.6) was prepared to resuspend the organisms with a final OD600 of 1.0, then mixed them with equal OD600 and volume before being infiltrated into N. benthamiana of the same growth stage. […]

[6] = target: PMMoV CP (Octet, in vitro) (pepper mild mottle virus); experiment: BLI; Octet, in vitro; which partner was immobilised is not stated
[7] = against PMMoV, average of three replicates, ± standard deviation
[8] = against PMMoV, at 500 µg/mL, average of three replicates, ± standard deviation

Compound	EC50 (PMMoV [1]; [7])	EC50 (PMMoV [2]; [7])	EC50 (PMMoV [3]; [7])	Curative activity (PMMoV [1]; [7])	Protective activity (PMMoV [2]; [7])	pest or weed control at 500 µg/mL (PMMoV [3]; [8])	also measured
CC(=O)OCC1OC(n2cnc3c(N4CCOCC4)ncnc32)C(NS(=O)(=O)c2ccc([N+](=O)[O-])cc2)C(OC(C)=O)C1OC(C)=O (stereo not shown) [C1]	17 ± 3.9 µg/mL (≈ 25.1 µM)	86.9 ± 8.8 µg/mL (≈ 128 µM)	37 ± 4.4 µg/mL (≈ 54.6 µM)	73.7 ± 5.2%	64.3 ± 2.8%	76.4%	Inactivating activity (PMMoV [3]; [8]): 76.4 ± 2.6%; Kd (PMMoV CP [4]): 1.5 µM; capture of the 17 kDa protein from PMMoV (PMMoV CP [5]): neither C1 nor DMSO exhibited such a capacity; competitive inhibition of C2 labeling of PMMoV CP (PMMoV CP [5]; increasing concentrations of C1, Fig. 1C): competitively inhibited the interaction of C2 with PMMoV CP; capture of PMMoV CP (PMMoV CP [5]): could not; effect on interaction of PMMoV CP and PMMoV CP^Y13A with I3QHX5 (PMMoV CP and I3QHX5): affected the interaction
C#CCN1CCN(c2ncnc3c2ncn3C2OC(COC(C)=O)C(OC(C)=O)C(OC(C)=O)C2NS(=O)(=O)c2ccc([N+](=O)[O-])cc2)CC1 (stereo not shown) [C2]	66.6 ± 4.5 µg/mL (≈ 93.2 µM)	64.5 ± 4.5 µg/mL (≈ 90.2 µM)	40.7 ± 2.3 µg/mL (≈ 56.9 µM)	67.3 ± 4.3%	65.9 ± 3.0%	67.4 ± 3.9%	capture of the 17 kDa protein from PMMoV (PMMoV CP [5]): capable of capturing the protein with a molecular weight of 17 kDa; labeling of PMMoV CP by probe (PMMoV CP [5]; concentrations of 10–50 µM): successfully labeled protein; labeling of PMMoV CP by probe (PMMoV CP [5]; concentrations reduced to 5–1 µM): failed to do so; capture of PMMoV CP (PMMoV CP [5]): could capture PMMoV CP
CC(=O)OCC1OC(n2cnc3c(N4CCOCC4)ncnc32)C(NS(=O)(=O)c2ccc(C)cc2)C(OC(C)=O)C1OC(C)=O (stereo not shown) [C24]	30.7 ± 1.2 µg/mL (≈ 47.5 µM)	919 ± 10.2 µg/mL (≈ 1420 µM)	145 ± 4.7 µg/mL (≈ 224 µM)	72.5 ± 2.2%	40.8 ± 3.5%	65.1 ± 4.2%	Kd (PMMoV CP [4]): 109 µM
CC(=O)OCC1OC(n2cnc3c(N4CCOCC4)nc(Cl)nc32)C(NS(=O)(=O)c2ccc(C)cc2)C(OC(C)=O)C1OC(C)=O (stereo not shown) [C25]	167 ± 5.2 µg/mL (≈ 245 µM)	345 ± 11.3 µg/mL (≈ 507 µM)	573 ± 10.9 µg/mL (≈ 841 µM)	59.0 ± 3.5%	52.3 ± 1.1%	46.9 ± 1.8%	Kd (PMMoV CP [4]): 264 ± 25.1 µM
Cc1ccc(S(=O)(=O)NC2C(O)C(O)C(CO)OC2n2cnc3c(N4CCOCC4)nc(Cl)nc32)cc1 (stereo not shown) [C36]	283 ± 10.5 µg/mL (≈ 510 µM)	562 ± 11.1 µg/mL (≈ 1010 µM)	313 ± 7.1 µg/mL (≈ 564 µM)	57.3 ± 1.1%	52.2 ± 0.8%	50.6 ± 3.6%	
CNCC(=O)N[C@@H](CO)C(=O)N[C@H]1[C@H](O)[C@@H](O)[C@H](n2ccc(N)nc2=O)O[C@@H]1C(N)=O [Ningnanmycin, reference compound]				54.5 ± 3.3%	60.8 ± 3.1%		EC50 (PMMoV [1]): 258 ± 7.6 µg/mL (≈ 581 µM); EC50 (PMMoV [2]): 285 ± 5.3 µg/mL (≈ 644 µM); EC50 (PMMoV [3]): 67.3 ± 3.5 µg/mL (≈ 152 µM); pest or weed control at 500 µg/mL (PMMoV [3]): 71.2 ± 6.1%
I3QHX5 (Octet, in vitro) (from UniProt I3QHX5 1-485) (natural protein)							Kd [6]: 0.013 µM

Continued, in another order:

EC50 (PMMoV [1]; [7])	EC50 (PMMoV [2]; [7])	EC50 (PMMoV [3]; [7])	Compound	Curative activity (PMMoV [1]; [7])	Protective activity (PMMoV [2]; [7])	pest or weed control at 500 µg/mL (PMMoV [3]; [8])	also measured
32 ± 1 µg/mL (≈ 44.7 µM)	305 ± 12.2 µg/mL (≈ 426 µM)	176 ± 11.3 µg/mL (≈ 246 µM)	CC(=O)OCC1OC(n2cnc3c(N4CCOCC4)ncnc32)C(NS(=O)(=O)c2ccc(OC(F)(F)F)cc2)C(OC(C)=O)C1OC(C)=O (stereo not shown) [C33]	71.5 ± 4.4%	53.0 ± 3.7%	54.4 ± 3.3%	
33.8 ± 4.6 µg/mL (≈ 46 µM)	53.8 ± 4.8 µg/mL (≈ 73.2 µM)	53 ± 2.2 µg/mL (≈ 72.1 µM)	CC(=O)OCC1OC(n2cnc3c(N4CCOCC4)nc(F)nc32)C(NS(=O)(=O)c2ccc(OC(F)(F)F)cc2)C(OC(C)=O)C1OC(C)=O (stereo not shown) [C34]	67.4 ± 2.0%	65.6 ± 4.5%	72.7 ± 2%	
17 ± 1.4 µg/mL (≈ 23.7 µM)	33.9 ± 0.5 µg/mL (≈ 47.3 µM)	457 ± 10.2 µg/mL (≈ 638 µM)	CC(=O)OCC1OC(n2cnc3c(N4CCOCC4)ncnc32)C(NS(=O)(=O)c2cccc(OC(F)(F)F)c2)C(OC(C)=O)C1OC(C)=O (stereo not shown) [C35]	67.9 ± 3.3%	68.9 ± 2.0%	49.1 ± 1.6%	
2000 ± 21.8 µg/mL (≈ 3620 µM)	344 ± 15.8 µg/mL (≈ 623 µM)	280 ± 13.9 µg/mL (≈ 507 µM)	O=[N+]([O-])c1ccc(S(=O)(=O)NC2C(O)C(O)C(CO)OC2n2cnc3c(N4CCOCC4)ncnc32)cc1 (stereo not shown) [C37]	36.2 ± 4.6%	50.6 ± 2.1%	57.8 ± 3.4%	
442 ± 12.6 µg/mL (≈ 726 µM)	474 ± 27.7 µg/mL (≈ 779 µM)	421 ± 7.4 µg/mL (≈ 692 µM)	O=S(=O)(NC1C(O)C(O)C(CO)OC1n1cnc2c(N3CCOCC3)nc(F)nc21)c1ccc(OC(F)(F)F)cc1 (stereo not shown) [C38]	51.54 ± 0.3%	46.5 ± 1.0%	51.6 ± 0.5%	
